Measurements: patent US12544325B2, “Compositions and related methods” (Colgate-Palmolive Company, priority 2020, dated 2026)

How the values were obtained:
[1] = Dissolution of amine fluoride in water with addition of alkali salts
Excerpt: Similar formulations are created also containing one or more alkali salts, selected from sodium chloride, potassium chloride and trisodium citrate dihydrate to investigate the effect of the salts' presence on solubility of the amine fluoride.

[2] = background statement; cited from earlier work
[3] = Dissolution of amine fluoride in water without additional salts (saturation concentration); details: no salts
Method: Amine fluoride is added in increasingly greater amounts to determine its saturation concentration, shown below in Table 1A.

[4] = Dissolution of tertiary amine with HCl and addition of alkali salts; type: physicochemical
Method: Further compositions containing the tertiary amine and hydrochloric acid were created. To these solutions, various quantities of alkali salts were added to evaluate the effect on solubility of the tertiary amine.

[5] = Dissolution of tertiary amine in water without inorganic salts, with or without HCl; type: physicochemical
Excerpt: Similar compositions were created as those listed in Table 1A, but instead of amine fluoride, a tertiary amine was used.

[6] = Dissolution of tertiary amine with HCl and sodium fluoride, without and with sodium chloride; type: physicochemical; details: hydrochloric acid, sodium fluoride and alkali salt added; compared to absence of additional inorganic salts
Excerpt: A new batch of solutions was created similar to those shown in Table 2B, but with the addition of sodium fluoride.

[7] = when adding sodium chloride (composition 10)
[8] = with hydrochloric acid and about 5% alkali salt (composition 34)

lowest concentration of sodium chloride shown to increase solubility of amine fluoride in water ([1]; sodium chloride)	solubility of amine fluoride in water [1, 7]	solubility of amine fluoride in water as concentration of tertiary amine [1, 7]	maximum solubility of amine fluoride in water [3]	maximum solubility of amine fluoride in water as concentration of tertiary amine ([3]; amine fluoride fully dissociated from hydrofluoride)	minimum addition of Sodium Chloride to fully dissolve 34% of tertiary amine ([4]; with hydrochloric acid)	solubility of tertiary amine in water [4, 8]	solubility of tertiary amine in water as concentration [4, 8]	solubility of tertiary amine as concentration ([5]; with hydrochloric acid corresponding to hydronium level of equivalent amine fluoride)	solubility of tertiary amine ([5]; with hydrochloric acid corresponding to hydronium level of equivalent amine fluoride (compositions 21-23))	solubility of the tertiary amine in water ([5]; without adjustment of pH)	solubility of the tertiary amine in water as concentration ([5]; without adjustment of pH)	change of solubility of the tertiary amine [6]	Structure (SMILES)	aqueous solubility [2]
about 0.7%	above 35 % by weight	about 640 mM	approximately 24 % by weight	about 440 mM									CCCCCCCCCCCCCCCCCCN(CCO)CCCN(CCO)CCO.F.F [amine fluoride, N′-octadecyltrimethylendiamine-N,N,N′-tris(2-ethanol)-dihydrofluoride]	very low aqueous solubility
					about 1%	about 40 % by weight	about 870 mM	about 530 mM	above 24%	about 70 % by weight	about 1520 mM	not increased any further	CCCCCCCCCCCCCCCCCCN(CCO)CCCN(CCO)CCO [tertiary amine, N′-octadecyltrimethylendiamine-N,N,N′-tris(2-ethanol)]	
